From patent US10584346B2, “HSF-like transcription factor, TBF1, is a major molecular switch for growth-to-defense transition in plants” (Duke University, priority 2011, dated 2020)

Columns and labels:
TBF1 promoter = test: Induction of the TBF1 promoter by chemical inducers
Arabidopsis seedlings [1] = test: Tunicamycin sensitivity assay (seedling recovery/survival); type: in vivo; details: two-day treatment with tunicamycin at 300 μg/L, measured 10 days later
Method: (Panel 11B) Seedling recovery after a two-day treatment with the UPR inducer tunicamycin at 300 μg/L was measured 10 days later by counting the percentage of surviving seedlings (left), and by phenotype observations (right). Error bars represent standard deviation of three replicates. This experiment was repeated five times with similar results. Statistical analysis was performed using the Student's t-test, ***, p-value≤0.001.
This assay was performed as described in earlier studies.

Arabidopsis seedlings [2] = test: Seedling growth (fresh weight) on MS media supplemented with SA, elf18 or flg22; type: in vivo; details: WT plants; 10 days on MS with increasing concentrations of SA or 10 μM elf18
Method: (Panel 11A) Fresh weight of ten seedlings grown for 10 days on plates with MS growth media (Ctrl), MS supplemented with increasing concentrations of SA or 10 μM elf18. Error bars represent the standard deviation of three replicates. This experiment was repeated three times with similar results. Statistical analysis was performed using the Student's t-test, *, p-value<0.05, **, p-value<0.01, ***, p-value≤0.001.
Fresh weight of ten seedlings grown for 10 days on plates with regular MS growth media (−f1g22) or MS supplemented with 10 μM f1g22 (+f1g22). Error bars represent standard deviation of three replicates. The experiment was repeated three times with similar results.

Psm ES4326 = test: Bacterial infection assay: SA- and MAMP-induced resistance to Psm ES4326 in Arabidopsis plants; type: in vivo, Pseudomonas syringae pv. maculicola; details: 1 mM SA spray 24 hrs prior to infection, Psm ES4326 OD600nm=0.001
Method: Infection of Arabidopsis plants with Pseudomonas syringae pv. maculicola (Psm) ES4326 was performed as described previously. To test for enhanced disease susceptibility, a bacterial suspension at OD600nm=0.0001 was infiltrated into 2-3 leaves per plant and 12 plants/genotype. Bacterial growth was quantified 3 days later. To test for SAR and MAMP-induced resistance, plants were pre-treated with relevant compounds (1 mM SA, spray 24 hrs prior to infection; 10 μM elf18, infiltration 2 hrs prior to infection; 10 μM flg22, infiltration 2 hrs prior to infection), and subsequently inoculated with Psm ES4326 (OD600nm=0.001) into 2-3 leaves per plant and 12 plants/genotype/treatment. Sampling was performed 3 days post inoculation.

Compound | induction of the TBF1 promoter (TBF1 promoter) | also measured
[Cl-].[Na+] [NaCl] | shown to induce the TBF1 promoter | 
CC1=CC(=O)CC(C)(C)[C@@]1(O)/C=C/C(C)=C\C(=O)O [abscisic acid] | shown to induce the TBF1 promoter | 
C=C [ethylene] | shown to induce the TBF1 promoter | 
tunicamycin |  | seedling survival rate (Arabidopsis seedlings [1]; WT): ~60%; seedling survival rate (Arabidopsis seedlings [1]; tbf1 mutant): ~20%
CC/C=C\CC1C(=O)CCC1CC(=O)OC (centres unmarked) [methyl ester of jasmonic acid] | shown to induce the TBF1 promoter | 
CC/C=C\C[C@H]1C(=O)CC[C@@H]1CC(=O)O [jasmonic acid] | shown to induce the TBF1 promoter | 
O=[N+]([O-])[O-].[Ag+] [AgNO3] | shown to induce the TBF1 promoter | 
C[C@@H]1C[C@@H]([C@H](O)CC2CC(=O)NC(=O)C2)C(=O)[C@@H](C)C1 [cycloheximide] | shown to induce the TBF1 promoter | 
O=C(O)c1ccccc1O [SA, salicylic acid] | shown to induce the TBF1 promoter | growth of seedlings (fresh weight) (Arabidopsis seedlings [2]): significantly inhibited; reduction in Psm ES4326 growth in response to induction by SA (Psm ES4326; WT plants, 3 days post inoculation): ~2 log; reduction in Psm ES4326 growth in response to induction by SA (Psm ES4326; tbf1 mutant): less than 1 log
OC[C@@H](O)[C@@H](O)[C@H](O)[C@H](O)CO [mannitol] | shown to induce the TBF1 promoter | 
